The test concerns the target T1, saccharase from pig small intestinal mucosa (Sus scrofa, UniProt P56729).
T1 construct: sucrase and isomaltase chains cleaved from one SI precursor
Kind of test: Saccharase inhibition test in vitro. The class given is biochemical. Particulars: solubilised saccharase 0.12 SU, sucrose substrate, 0.1 M sodium maleate buffer pH 6.0, 35° C.; 1 SIU = amount inhibiting two saccharase units by 50%. How it is done: A saccharase inhibitor unit (SIU) is defined as the amount of inhibitor which inhibits two saccharase units to the extent of 50%. A saccharase unit (SU) is the amount of enzyme which cleaves 1 μmol of sucrose into glucose and fructose in one minute under the test conditions given below. […] To perform the tests, 0.05 ml of a solution of saccharase^(1) which had been set at 0.12 SU was mixed with 0 to 20 μg of inhibitor or 0 to 20 μl of the solution for testing and made up with 0.1 M sodium maleate buffer of pH 6.0 or 0.1 ml. The mixture was equilibrated for 10 minutes at 35° C. and then mixed with 0.1 ml of a 0.05 M solution of sucrose in 0.1 M sodium maleate buffer of pH 6.0 pre-warmed to 35° C. After incubation for 20 minutes at 35° C., the saccharase reaction was stopped by addition of 1 ml of glucose oxidase reagent^(2), and incubation was continued for 30 minutes at 35° C. Thereafter 1 ml of 50% strength H2 SO4 was added and measured at 545 nm against an appropriate blank. For evaluation, the percentage inhibition of the saccharase employed is calculated and, with the aid of a glucose calibration curve, converted from the 50% inhibition point to SIU/g or SIU/liter. (1) Solubilised saccharase from pig small intestinal mucosa according to B. Borgstrom, A. Dahlquist, Acta Chem. Scand. 12, (1958), page 1997. Diluted with 0.1 M sodium maleate buffer of pH 6.0 to the appropriate SU content. (2) The glucose oxidase reagent is prepared by dissolving 2 mg of glucose oxidase (Boehringer No. 15423) in 100 ml of 0.565 M tris-HCl buffer of pH 7.0 and subsequently adding 1 ml of detergent solution (2 g of Triton X 100+8 g of 95% strength ethanol AR), 1 ml of dianisidine solution (260 mg of o-dianisidine 0.2 HCl in 20 ml of H2 O) and 0.5 ml of 0.1% strength aqueous peroxidase solution (Boehringer No. 15302).
T1 sequence (P56729 with tags, fused parts or gaps): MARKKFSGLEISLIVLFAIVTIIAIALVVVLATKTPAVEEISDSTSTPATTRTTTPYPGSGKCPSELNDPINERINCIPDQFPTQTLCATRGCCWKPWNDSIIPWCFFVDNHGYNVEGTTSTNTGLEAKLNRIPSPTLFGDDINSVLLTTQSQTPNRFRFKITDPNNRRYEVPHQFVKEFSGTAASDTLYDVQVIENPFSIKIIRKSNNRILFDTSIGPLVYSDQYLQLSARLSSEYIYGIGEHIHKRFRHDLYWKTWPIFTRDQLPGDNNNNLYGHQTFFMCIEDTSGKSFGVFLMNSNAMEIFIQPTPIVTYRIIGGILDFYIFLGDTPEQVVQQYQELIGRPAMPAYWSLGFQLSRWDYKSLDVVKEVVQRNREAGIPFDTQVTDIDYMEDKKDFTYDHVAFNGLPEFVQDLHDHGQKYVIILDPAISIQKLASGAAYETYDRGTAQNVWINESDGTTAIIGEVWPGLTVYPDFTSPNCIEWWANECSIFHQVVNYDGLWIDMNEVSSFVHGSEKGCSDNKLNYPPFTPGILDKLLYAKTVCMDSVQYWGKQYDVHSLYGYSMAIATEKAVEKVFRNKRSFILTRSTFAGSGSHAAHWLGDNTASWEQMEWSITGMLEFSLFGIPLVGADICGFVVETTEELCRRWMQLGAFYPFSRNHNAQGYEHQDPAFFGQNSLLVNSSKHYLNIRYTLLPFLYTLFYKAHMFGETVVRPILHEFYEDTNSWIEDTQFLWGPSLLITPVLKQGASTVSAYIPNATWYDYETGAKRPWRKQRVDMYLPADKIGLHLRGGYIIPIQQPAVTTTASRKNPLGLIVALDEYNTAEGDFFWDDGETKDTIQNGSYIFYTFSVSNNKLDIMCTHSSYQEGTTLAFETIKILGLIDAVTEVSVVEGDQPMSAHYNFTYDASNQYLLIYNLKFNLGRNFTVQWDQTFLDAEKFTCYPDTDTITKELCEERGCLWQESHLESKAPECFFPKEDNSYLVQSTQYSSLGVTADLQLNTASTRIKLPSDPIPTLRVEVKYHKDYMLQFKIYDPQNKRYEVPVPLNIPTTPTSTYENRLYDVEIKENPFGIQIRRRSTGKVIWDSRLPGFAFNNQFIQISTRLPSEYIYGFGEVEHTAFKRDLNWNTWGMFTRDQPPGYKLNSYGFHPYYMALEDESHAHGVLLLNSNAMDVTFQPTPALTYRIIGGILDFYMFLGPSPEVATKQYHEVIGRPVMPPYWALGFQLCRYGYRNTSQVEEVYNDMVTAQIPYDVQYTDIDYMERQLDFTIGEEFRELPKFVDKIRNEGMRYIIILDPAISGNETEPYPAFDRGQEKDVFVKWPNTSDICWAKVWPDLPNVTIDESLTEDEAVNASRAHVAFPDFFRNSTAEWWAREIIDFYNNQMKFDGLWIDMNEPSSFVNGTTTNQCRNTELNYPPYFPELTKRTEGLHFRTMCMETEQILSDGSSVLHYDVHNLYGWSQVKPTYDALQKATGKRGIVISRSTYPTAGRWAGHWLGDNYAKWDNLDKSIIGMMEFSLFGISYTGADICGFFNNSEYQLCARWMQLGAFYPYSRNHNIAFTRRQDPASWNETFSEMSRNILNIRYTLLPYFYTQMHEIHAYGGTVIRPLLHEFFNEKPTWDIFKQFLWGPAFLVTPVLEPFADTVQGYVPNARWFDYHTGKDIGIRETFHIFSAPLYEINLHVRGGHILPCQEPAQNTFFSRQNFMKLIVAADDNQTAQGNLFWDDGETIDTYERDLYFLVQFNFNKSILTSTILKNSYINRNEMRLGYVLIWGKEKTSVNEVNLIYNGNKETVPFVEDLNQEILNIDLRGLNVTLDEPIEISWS
With `COC1O[C@H](C)[C@@H](N[C@H]2C=C(CO)[C@@H](O)[C@H](O)[C@H]2O)[C@H](O)[C@H]1O` (stereo partly shown), the “Effectiveness in the saccharase inhibition test in vitro (saccharase inhibitor units per g)” value was 38 850 SIU/g.

`C[C@H]1O[C@H](O[C@H]2[C@H](O)[C@@H](O)[C@@H](O[C@H]3[C@H](O)[C@@H](O)C(O)O[C@@H]3CO)O[C@@H]2CO)[C@H](O)[C@@H](O)[C@@H]1N[C@H]1C[C@H](CO)[C@@H](O)[C@H](O)[C@H]1O` (stereo partly shown) [Example 1]: the “Effectiveness in the saccharase inhibition test in vitro (saccharase inhibitor units per g)” value is 59 829 SIU/g.

In the case of `COC1O[C@H](C)[C@@H](N[C@H]2C[C@H](CO)[C@@H](O)[C@H](O)[C@H]2O)[C@H](O)[C@H]1O` (stereo partly shown) [Example 2], the “Effectiveness in the saccharase inhibition test in vitro (saccharase inhibitor units per g)” value is recorded as 38 850 SIU/g.

As for `C[C@H]1O[C@H](O[C@H]2[C@H](O)[C@@H](O)[C@@H](O[C@H]3[C@H](O)[C@@H](O)C(O)O[C@@H]3CO)O[C@@H]2CO)[C@H](O)[C@@H](O)[C@@H]1N[C@H]1C=C(CO)[C@@H](O)[C@H](O)[C@H]1O` (stereo partly shown) [acarbose], the “Effectiveness in the saccharase inhibition test in vitro (saccharase inhibitor units per g)” value is 77 700 SIU/g.

The values above are taken from US4536493A, “Saturated aminocyclitol derivatives, their preparation and medicaments containing these compounds” (Baker Aktiengesellschaft, priority 1981, dated 1985).
